Experimental data as given in patent publication US9695154B2, “Heteroaryl inhibitors of sumo activating enzyme” (MILLENNIUM PHARMACEUTICALS, INC., priority 2013, dated 2017).

Molecular target: T1, recombinant human SAE enzyme (Homo sapiens, UniProt Q9UBT2)
T1 sequence (Q9UBT2 1-640): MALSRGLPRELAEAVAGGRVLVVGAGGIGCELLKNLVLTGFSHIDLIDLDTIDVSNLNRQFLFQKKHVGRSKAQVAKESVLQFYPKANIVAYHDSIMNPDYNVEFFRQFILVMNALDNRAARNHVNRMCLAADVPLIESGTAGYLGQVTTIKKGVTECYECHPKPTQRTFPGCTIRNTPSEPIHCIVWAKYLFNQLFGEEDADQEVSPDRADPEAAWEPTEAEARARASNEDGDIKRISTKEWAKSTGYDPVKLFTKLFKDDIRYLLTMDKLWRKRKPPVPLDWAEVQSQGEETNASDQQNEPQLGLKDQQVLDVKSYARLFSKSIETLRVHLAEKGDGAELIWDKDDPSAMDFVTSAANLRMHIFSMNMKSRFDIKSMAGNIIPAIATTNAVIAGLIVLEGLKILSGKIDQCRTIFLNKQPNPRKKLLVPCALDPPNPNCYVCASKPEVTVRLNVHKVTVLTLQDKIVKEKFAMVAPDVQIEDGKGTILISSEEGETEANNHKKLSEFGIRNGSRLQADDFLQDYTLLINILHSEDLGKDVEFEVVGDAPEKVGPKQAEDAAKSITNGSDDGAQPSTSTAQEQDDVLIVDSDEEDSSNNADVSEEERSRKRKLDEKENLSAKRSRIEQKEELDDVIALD
T1 sequence (Q9UBE0 1-346 partner): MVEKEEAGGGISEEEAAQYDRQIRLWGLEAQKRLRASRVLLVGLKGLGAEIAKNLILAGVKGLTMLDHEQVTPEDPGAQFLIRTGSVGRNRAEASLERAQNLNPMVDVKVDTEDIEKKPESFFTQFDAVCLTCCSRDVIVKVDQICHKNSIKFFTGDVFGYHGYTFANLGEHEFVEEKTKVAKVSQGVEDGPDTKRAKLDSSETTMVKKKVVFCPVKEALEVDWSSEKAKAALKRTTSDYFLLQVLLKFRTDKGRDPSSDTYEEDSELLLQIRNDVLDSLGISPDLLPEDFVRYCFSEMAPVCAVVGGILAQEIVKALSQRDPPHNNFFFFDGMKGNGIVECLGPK
Test: SAE HTRF Enzyme Assay
Type: biochemical
Conditions: for IC50: class symbols A-C; for Percent Inhibition / inhibition at 0.111 µM: compound concentration 0.111 μM; for Percent Inhibition: 0.111 µM; for inhibition at 0.111 µM: read-out: Percent Inhibition
Procedure, shortened: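 Reaction with 0.11 nM recombinant human SAE, 0.5 μM ATP, 0.01 μM Ubc9-GST, 0.125 μM Sumo-Flag in HEPES pH 7.5, MgCl2, GSH, BSA, 105 min at 24 °C. Stopped with EDTA/KF buffer carrying Eu-anti-Flag and anti-GST-APC; HTRF read after 2 h; % inhibition or IC50.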

Structure (SMILES) | IC50 [nM] | Percent Inhibition [%] | inhibition at 0.111 µM [%]
CC(c1ccccc1)n1ccc(C(=O)c2cncnc2N[C@@H]2C[C@H](COS(N)(=O)=O)[C@@H](O)[C@H]2O)n1 (single isomer, unassigned) [Compound I-361, {(1R,2R,3S,4R)-2,3-dihydroxy-4-[(5-{[1-((1S)-1-phenylethyl)-1H-pyrazol-3-yl]carbonyl}pyrimidin-4-yl)amino]cyclopentyl}methyl sulfamate or {(1R,2R,3S,4R)-2,3-dihydroxy-4-[(5-{[1-((1R)-1-phenylethyl)-1H-pyrazol-3-yl]carbonyl}pyrimidin-4-yl)amino]cyclopentyl}methyl sulfamate] | 10 to 100 | 85 | –
NS(=O)(=O)OC[C@H]1C[C@@H](Nc2ncncc2C(=O)c2ccn(Cc3ccc(F)c(Br)c3)c2)C[C@@H]1O [Compound I-279, {(1R,2S,4R)-4-[(5-{[1-(3-bromo-4-fluorobenzyl)-1H-pyrrol-3-yl]carbonyl}pyrimidin-4-yl)amino]-2-hydroxycyclopentyl}methyl sulfamate] | < 10 | – | 98
NS(=O)(=O)OC[C@H]1C[C@@H](Nc2ncncc2C(=O)c2ccn(Cc3ccccc3)n2)C[C@@H]1O [Compound I-158, [(1R,2S,4R)-4-({5-[(1-Benzyl-1H-pyrazol-3-yl)carbonyl]pyrimidin-4-yl}amino)-2-hydroxycyclopentyl]methyl sulfamate] | < 10 | – | 95
NS(=O)(=O)OC[C@H]1C[C@@H](Nc2ncncc2C(=O)c2ccn(Cc3ccc(OC(F)(F)F)cc3)n2)[C@H](O)[C@@H]1O [Compound I-265, [(1R,2R,3S,4R)-2,3-dihydroxy-4-{[5-({1-[4-(trifluoromethoxy)benzyl]-1H-pyrazol-3-yl}carbonyl)pyrimidin-4-yl]amino}cyclopentyl]methyl sulfamate] | < 10 | – | 95
NS(=O)(=O)OC[C@H]1C[C@@H](Nc2ncncc2C(=O)c2ccn(Cc3cc(C(F)(F)F)ccc3Cl)n2)C[C@@H]1O [Compound I-50, [(1R,2S,4R)-4-{[5-({1-[2-chloro-5-(trifluoromethyl)benzyl]-1H-pyrazol-3-yl}carbonyl)pyrimidin-4-yl]amino}-2-hydroxycyclopentyl]methyl sulfamate] | < 10 | – | 99
NS(=O)(=O)OC[C@H]1C[C@@H](Nc2ncncc2C(=O)c2ccn(CCc3c[nH]c4ccccc34)n2)[C@H](O)[C@@H]1O [Compound I-33, [(1R,2R,3S,4R)-2,3-dihydroxy-4-{[5-({1-[2-(1H-indol-3-yl)ethyl]-1H-pyrazol-3-yl}carbonyl)pyrimidin-4-yl]amino}cyclopentyl]methyl sulfamate] | < 10 | – | 98
NS(=O)(=O)OC[C@H]1C[C@@H](Nc2ncncc2C(=O)c2cc(Cl)n(Cc3cccc(Cl)c3)c2)[C@@H](F)[C@@H]1O [Compound I-61] | < 10 | – | 99
NS(=O)(=O)OC[C@H]1C[C@@H](Nc2ncncc2C(=O)c2ccn(Cc3ccc(Cl)c(C(F)(F)F)c3)n2)[C@@H](F)[C@@H]1O [Compound I-156, [(1R,2R,3R,4R)-4-{[5-({1-[4-chloro-3-(trifluoromethyl)benzyl]-1H-pyrazol-3-yl}carbonyl)pyrimidin-4-yl]amino}-3-fluoro-2-hydroxycyclopentyl]methyl sulfamate] | 10 to 100 | – | 90
C#Cc1cccc([C@H](C)n2ccc(C(=O)c3cncnc3N[C@@H]3C[C@H](COS(N)(=O)=O)[C@@H](O)C3)n2)c1 (single isomer, unassigned) [Compound I-355] | < 10 | – | 99
NS(=O)(=O)OC[C@H]1C[C@@H](Nc2ncncc2C(=O)c2ccn(Cc3ccccc3OC(F)(F)F)n2)[C@H](O)[C@@H]1O [Compound I-98, [(1R,2R,3S,4R)-2,3-dihydroxy-4-{[5-({1-[2-(trifluoromethoxy)benzyl]-1H-pyrazol-3-yl}carbonyl)pyrimidin-4-yl]amino}cyclopentyl]methyl sulfamate] | < 10 | – | 96
NS(=O)(=O)OC[C@H]1C[C@@H](Nc2ncncc2C(=O)c2ccn(Cc3cccc(OC(F)F)c3)c2)[C@@H](F)[C@@H]1O [Compound I-224, [(1R,2R,3R,4R)-4-{[5-({1-[3-(difluoromethoxy)benzyl]-1H-pyrrol-3-yl}carbonyl)pyrimidin-4-yl]amino}-3-fluoro-2-hydroxycyclopentyl]methyl sulfamate] | < 10 | – | 99
C/C=C/Cn1ccc(C(=O)c2cncnc2N[C@@H]2C[C@H](COS(N)(=O)=O)[C@@H](O)C2)n1 [Compound I-107, [(1R,2S,4R)-4-{[5-({1-[(2E)-but-2-en-1-yl]-1H-pyrazol-3-yl}carbonyl)pyrimidin-4-yl]amino}-2-hydroxycyclopentyl]methyl sulfamate] | 10 to 100 | – | 70
CC(c1cccc(Br)c1)n1ccc(C(=O)c2cncnc2N[C@@H]2C[C@H](COS(N)(=O)=O)[C@@H](O)[C@@H]2F)c1 (single isomer, unassigned) [Compound I-363, [(1R,2R,3R,4R)-4-{[5-({1-[(1S)-1-(3-bromophenyl)ethyl]-1H-pyrrol-3-yl}carbonyl)pyrimidin-4-yl]amino}-3-fluoro-2-hydroxycyolopentyl]methyl sulfamate or [(1R,2R,3R,4R)-4-{[5-({1-[(1R)-1-(3-bromophenyl)ethyl]-1H-pyrrol-3-yl}carbonyl)pyrimidin-4-yl]amino}-3-fluoro-2-hydroxycyclopentyl]methyl sulfamate] | < 10 | 100 | –
NS(=O)(=O)OC[C@H]1C[C@@H](Nc2ncncc2C(=O)c2ccn(Cc3cc(F)cc(F)c3)n2)[C@H](O)[C@@H]1O [Compound I-269, {(1R,2R,3S,4R)-4-[(5-{[1-(3,5-difluorobenzyl)-1H-pyrazol-3-yl]carbonyl}pyrimidin-4-yl)amino]-2,3-dihydroxycyclopentyl}methyl sulfamate] | < 10 | – | 96
CC(c1cccc(Br)n1)n1ccc(C(=O)c2cncnc2N[C@@H]2C[C@H](COS(N)(=O)=O)[C@@H](O)C2)n1 (single isomer, unassigned) [Compound I-65, [(1R,2S,4R)-4-{[5-({1-[(1S)-1-(6-bromopyridin-2-yl)ethyl]-1H-pyrazol-3-yl}carbonyl)pyrimidin-4-yl]amino}-2-hydroxycyclopentyl]methyl sulfamate or [(1R,2S,4R)-4-{[5-({1-[(1R)-1-(6-bromopyridin-2-yl)ethyl]-1H-pyrazol-3-yl}carbonyl)pyrimidin-4-yl]amino}-2-hydroxycyclopentyl]methyl sulfamate] | < 10 | 99 | –
CC(C)CC#CCn1ccc(C(=O)c2cncnc2N[C@@H]2C[C@H](COS(N)(=O)=O)[C@@H](O)C2)n1 [Compound I-153, {(1R,2S,4R)-2-hydroxy-4-[(5-{[1-(5-methylhex-2-yn-1-yl)-1H-pyrazol-3-yl]carbonyl}pyrimidin-4-yl)amino]cyclopentyl}methyl sulfamate] | 10 to 100 | – | 82
N#CCn1ccc(C(=O)c2cncnc2N[C@@H]2C[C@H](COS(N)(=O)=O)[C@@H](O)C2)n1 [Compound I-108, {(1R,2S,4R)-4-[(5-{[1-(cyanomethyl)-1H-pyrazol-3-yl]carbonyl}pyrimidin-4-yl)amino]-2-hydroxycyclopentyl}methyl sulfamate] | 100 to 1000 | – | 18
NS(=O)(=O)OC[C@H]1C[C@@H](Nc2ncncc2C(=O)c2ccn(Cc3cccc(OC(F)(F)F)c3)c2)C[C@@H]1O [Compound I-271, [(1R,2S,4R)-2-hydroxy-4-{[5-({1-[3-(trifluoromethoxy)benzyl]-1H-pyrrol-3-yl}carbonyl)pyrimidin-4-yl]amino}cyclopentyl]methyl sulfamate] | < 10 | – | 97
NS(=O)(=O)OC[C@H]1C[C@@H](Nc2ncncc2C(=O)c2ccn(Cc3cccc(C(F)(F)F)c3)n2)C[C@@H]1O [Compound I-140, [(1R,2S,4R)-2-hydroxy-4-{[5-({1-[3-(trifluoromethyl)benzyl]-1H-pyrazol-3-yl}carbonyl)pyrimidin-4-yl]amino}cyclopentyl]methyl sulfamate] | < 10 | – | 98
